Measurements published in patent publication US20130231303A1, “5-HALOGENOPYRAZOLE(THIO)CARBOXAMIDES” (Bayer Intellectual Property GmbH, priority 2010, published 2013).

Columns and labels:
[1] = logP by HPLC on reversed-phase column (EEC Directive 79/831 Annex V.A8); type: physicochemical; details: HPLC, reversed-phase C 18, 40° C., 0.1% aqueous formic acid and acetonitrile gradient
Procedure: In table 1, the logP values were determined in accordance with EEC Directive 79/831 Annex V.A8 by HPLC (High Performance Liquid Chromatography) on a reversed-phase column (C 18), using the method described below: Temperature: 40° C.; Mobile phases: 0.1% aqueous formic acid and acetonitrile; linear gradient from 10% acetonitrile to 90% acetonitrile. Calibration was carried out using unbranched alkan-2-ones (comprising 3 to 16 carbon atoms) with known logP values (determination of the logP values by the retention times using linear interpolation between two successive alkanones). lambda-max-values were determined using UV-spectra from 200 nm to 400 nm and the peak values of the chromatographic signals.

Alternaria solani = assay: Alternaria test (tomato)/preventive; type: in vivo; details: preventive, 500 ppm, evaluated 7 days after inoculation
Procedure: The plants remain for one day in an incubation cabinet at approximately 22° C. and a relative atmospheric humidity of 100%. Then the plants are placed in an incubation cabinet at approximately 20° C. and a relative atmospheric humidity of 96%.

Sphaerotheca fuliginea = assay: Sphaerotheca test (cucumber)/preventive; type: in vivo; details: preventive, 500 ppm, evaluated 7 days after inoculation
Procedure: Then the plants are placed in a greenhouse at approximately 23° C. and a relative atmospheric humidity of approximately 70%.

Venturia inaequalis = assay: Venturia test (apples)/preventive; type: in vivo; details: preventive, 100 ppm, evaluated 10 days after inoculation
Procedure: Venturia Test (Apples)/Preventive […] After the spray coating has dried on, the plants are inoculated with an aqueous conidia suspension of the causal agent of apple scab (Venturia inaequalis) and then remain for 1 day in an incubation cabinet at approximately 20° C. and a relative atmospheric humidity of 100%.

Uromyces appendiculatus = assay: Uromyces test (beans)/preventive; type: in vivo; details: preventive, 100 ppm, evaluated 10 days after inoculation
Source text: Uromyces Test (Beans)/Preventive

Botrytis cinerea = assay: Botrytis test (beans)/preventive; type: in vivo; details: preventive, 100 ppm, lesion size 2 days after inoculation
Procedure: Botrytis Test (Beans)/Preventive
• Solvent: 24.5 parts by weight of acetone • 24.5 parts by weight of N,N-dimethylformamide • Emulsifier: 1 part by weight of alkylaryl polyglycol ether
After the spray coating has dried on, 2 small pieces of agar covered with growth of Botrytis cinerea are placed on each leaf. The inoculated plants are placed in a darkened chamber at 20° C. and a relative atmospheric humidity of 100%.
2 days after the inoculation, the size of the lesions on the leaves is evaluated.

[2] = system: Blumeria graminis f.sp. hordei; assay: Blumeria test (barley)/preventive; type: in vivo; details: preventive, 500 ppm, evaluated 7 days after inoculation
Procedure: After the spray coating has been dried, the plants are dusted with spores of Blumeria graminis f.sp. hordei. The plants are placed in the greenhouse at a temperature of approximately 18° C. and a relative atmospheric humidity of approximately 80% to promote the development of mildew pustules.

[3] = system: Fusarium nivale (var. majus); assay: Fusarium nivale (var. majus)-test (wheat)/preventive; type: in vivo; details: preventive; for Efficacy: evaluated 5 days after inoculation
Procedure: After the spray coating has been dried, the plants are slightly injured by using a sandblast and afterwards they are sprayed with a conidia suspension of Fusarium nivale (var. majus). The plants are placed in the greenhouse under a translucent incubation cabinet at a temperature of approximately 10° C. and a relative atmospheric humidity of approximately 100%.

Puccinia recondita = assay: Puccinia test (wheat)/preventive; type: in vivo; details: preventive, 500 ppm, evaluated 7-9 days after inoculation
Procedure: (§1) The plants remain for 48 hours in an incubation cabinet at 22° C. and a relative atmospheric humidity of 100%. Then the plants are placed in a greenhouse at a temperature of approximately 20° C. and a relative atmospheric humidity of approximately 80%.

Pyrenophora teres = assay: Pyrenophora test (barley)/preventive; type: in vivo; details: preventive, 500 ppm, evaluated 7-9 days after inoculation
Procedure: as §1

Pyricularia oryzae = type: in vivo; details: rice, protective, 250 ppm, evaluated 5 days after inoculation
Rhizoctonia solani = assay: Rhizoctonia test (rice)/protective; type: in vivo; details: protective, 250 ppm, evaluated 4 days after inoculation
Source text: Rhizoctonia Test (Rice)/Protective

Phakopsora pachyrhizi = assay: Phakopsora test (soybeans)/protective; type: in vivo; details: protective, 250 ppm, evaluated 11 days after inoculation
Source text: Phakopsora Test (Soybeans)/Protective

Cochliobolus miyabeanus = assay: Cochliobolus test (rice)/protective; details: protective, 250 ppm, evaluated 4 days after inoculation
Procedure: • Solvent: 28.5 parts by weight of acetone • Emulsifier: 1.5 part by weight of alkylaryl polyglycol ether
1 day after the treatment, the plants are inoculated with an aqueous spore suspension of Cochliobolus miyabeanus. The plants are then placed in a greenhouse at a relative atmospheric humidity of 100% and a temperature of 25° C.
Evaluation is carried out 4 days after the inoculation.

| SMILES | logP [1] | Efficacy (Alternaria solani) [%] | Efficacy (Sphaerotheca fuliginea) [%] | Efficacy (Venturia inaequalis) [%] | Efficacy (Uromyces appendiculatus) [%] | Efficacy (Botrytis cinerea) [%] | Efficacy [2] [%] | Efficacy ([3]; 500 ppm) [%] | Efficacy (Puccinia recondita) [%] | Efficacy (Pyrenophora teres) [%] | Efficacy ([3]; 250 ppm) [%] | protection ([3]; dose of 250 ppm and 500 ppm (text summary of table G2)) | Efficacy (Pyricularia oryzae) [%] | Efficacy (Rhizoctonia solani) [%] | Efficacy (Phakopsora pachyrhizi) [%] | Efficacy (Cochliobolus miyabeanus) [%] |
| --- | --- | --- | --- | --- | --- | --- | --- | --- | --- | --- | --- | --- | --- | --- | --- | --- |
| Cn1nc(C(F)F)c(C(=O)Nc2ccsc2CC[Si](C)(C)C)c1Cl [Example 18] | 4.30 | 80 | 98 | 94 | 100 | 91 | 92 | 100 | 100 | 100 |  |  |  |  |  |  |
| Cn1nc(C(F)F)c(C(=O)Nc2ccsc2CC[Si](C)(C)C)c1F [Example 19] | 4.06 | 90 | 100 | 99 | 100 | 100 | 100 | 100 | 100 | 100 |  |  |  |  |  |  |
| CC(C)CC(C)c1sccc1NC(=O)c1c(C(F)F)nn(C)c1Cl (stereo not shown) [Example 3] | 4.19 | 100 | 96 | 100 | 100 | 98 | 100 | 100 | 100 | 100 | 86 | at least 80% | 97 | 100 | 98 | 97 |
| CC(C)CC(C)c1sccc1NC(=O)c1c(C(F)F)nn(C)c1F (stereo not shown) [Example 4] | 3.94 | 100 | 100 | 100 | 100 | 97 | 100 |  | 100 | 100 |  |  |  |  | 99 |  |
